Assay results reported in paper PMC3463587, “A Series of Beta-Carboline Derivatives Inhibit the Kinase Activity of PLKs” (PLoS ONE, 2012).

Columns and labels:
[1] = tested on: MRC5 cells; test: FACS cell cycle analysis (PI), MRC5; format: cell-based, Human; settings: 48 hr
Description: It is well documented that PLK1 is involved in multiple steps in mitosis, such as centrosome maturation and establishment of bipolar spindle. […] Therefore, the down-regulation of PLK1 would change the distribution of cells in different cell cycle stages. To test this possibility, fluorescence-activated cell sorter (FACS) analysis was used to analyze the DNA content of HeLa cells treated with the identified PLK1 inhibitors, DH281, DH285, and DH287. HeLa cells were first incubated in the absence and presence of these compounds at different concentrations (0, 0.12, 0.48 and 1.92 µM) for 48 hr. […] Treatment with a lower concentration of the compounds (0.12 and 0.48 µM) also led to an obvious increase of the cell population in G2/M phase (Figure 4A, Table 3). Moreover, the proportion of HeLa cells in G2/M phase increased over time after incubation in the presence of 0.8 µM of DH281, DH285 and DH287 (Figure 4B, Table 4). […] We also determined the cell cycle distribution of the non-cancer MRC5 cells after treatment with DH281 at different concentrations. […] It is also possible that inhibition of the kinase activity of the whole PLK family by beta-carboline compounds results in the defect in cell cycle progression.
Tumor cells were exposed to vehicle (0.1% DMSO) or compounds at 0, 0.12, 0.48, and 1.92 µM for 48 hr or 0.8 µM for 24, 48, and 72 hr; MRC5 cells were exposed to compounds at 0, 0.12, 0.48, and 1.92 µM for 48 hr. The floated and attached cells were treated by trypsinization and washed with cold PBS. The cells were then fixed with 70% (v/v) ethanol at 4°C overnight. The fixed cells were washed twice with PBS and incubated with 50 µg/mL RNase A (Sigma, USA) and 50 µg/mL propidium iodide (PI) (Sigma, USA) at 37°C for 30 min.

[2] = tested on: MRC5 cells; settings: read-out: IC50 MRC5; MTT, 48 hr, non-cancer cells
Description: All the beta-carboline derivatives were provided by Xinjiang Huashidan Pharmaceutical Co. Ltd. The culture media and fetal bovine serum (FBS) were purchased from Hyclone (Hyclone Laboratories Inc., USA). […] All the cell lines were obtained from the Cell Culture Centre, Institute of Basic Medical Science, Chinese Academy of Medical Science and incubated at 37°C supplied with 5% CO2. HeLa cells were grown in standard DMEM with 10% FBS.
MRC5, HeLa, HepG2, PC3 and MG63 cells were seeded at 3000–6000 cells/well (200 µl/well) in a 96-well plate and incubated overnight. Then different concentrations of compounds were added into the cell cultures with a final concentration of 0.1% DMSO and incubated for an additional 48 hr. After that, 22 µl MTT solution (5 mg/ml) was added into each well and incubated at 37°C for 4 hr.

[3] = molecular target: T1, Aurora-A (Homo sapiens, UniProt O14965); test: In vitro kinase assay Aurora A; format: biochemical
T1 sequence (O14965 1-403): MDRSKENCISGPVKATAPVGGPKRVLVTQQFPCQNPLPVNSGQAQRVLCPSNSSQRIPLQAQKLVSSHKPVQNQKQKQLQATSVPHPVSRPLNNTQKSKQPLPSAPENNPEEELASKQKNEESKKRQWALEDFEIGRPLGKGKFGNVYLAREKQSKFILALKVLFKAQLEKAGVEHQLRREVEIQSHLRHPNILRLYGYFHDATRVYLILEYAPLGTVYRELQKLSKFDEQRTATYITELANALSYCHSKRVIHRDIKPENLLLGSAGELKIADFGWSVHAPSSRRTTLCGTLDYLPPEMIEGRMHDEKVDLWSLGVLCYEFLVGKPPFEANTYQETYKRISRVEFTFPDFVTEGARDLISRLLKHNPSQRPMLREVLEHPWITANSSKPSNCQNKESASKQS
Description: (§1) The inhibition of PLK1 kinase activity was assessed using the Cyclex PLK1 Assay/Inhibitor Screening Kit (MBL International Corporation, Japan). The kit includes anti-phospho-threonine polyclonal antibody (PPT-07) and peroxidase coupled anti-rabbit IgG antibody as a reporter in a 96-well ELSIA format. Compounds were used at the concentrations from 10^− ^3 to 10^2 µg/ml and the absorbance was determined at 450 nm. A similar protocol was used to determine the kinase inhibition for PLK2, PLK3, Aurora A and Aurora B. The kinase activity of CDK1/cyclinB and CDK2/cyclinE was analyzed in the presence of serially diluted inhibitors. For each reaction, 20 ng of recombinant kinase was used and […] casein from bovine milk (Sigma) was added as the kinase substrate. The kinase reaction buffer contains 8 mM MOPS pH7.0, 0.2 mM EDTA, 0.1 mg/ml histone H1, 10 mM and MgAcetace and [γ^− ^33P-ATP] (500 cpm/pmol). The reaction was initiated by adding the MgATP mix. After incubation for 40 minutes at room temperature, the reaction was stopped by the addition of 3% phosphoric acid solution. We spotted 10 µl of the reaction mixture onto a P30 filtermat and washed three times for 5 min with 75 mM phosphoric acid and once with methanol prior to drying and scintillation counting.

[4] = molecular target: Aurora-B (Homo sapiens, UniProt Q96GD4); test: In vitro kinase assay Aurora B; format: biochemical
Description: as §1

Sequence of Aurora-B (Q96GD4 whole entry): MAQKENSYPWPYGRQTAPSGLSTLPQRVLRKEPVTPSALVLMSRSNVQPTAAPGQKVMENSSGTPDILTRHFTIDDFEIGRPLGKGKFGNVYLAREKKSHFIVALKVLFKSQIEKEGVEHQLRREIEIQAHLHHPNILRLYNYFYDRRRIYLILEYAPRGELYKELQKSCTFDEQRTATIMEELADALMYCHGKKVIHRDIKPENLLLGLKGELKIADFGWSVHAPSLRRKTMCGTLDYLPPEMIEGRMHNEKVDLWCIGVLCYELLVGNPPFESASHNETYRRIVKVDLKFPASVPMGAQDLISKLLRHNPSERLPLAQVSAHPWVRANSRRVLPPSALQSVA

SMILES: Cc1c2c(cc[n+]1Cc1ccccc1)c1ccc(OCc3ccc(F)cc3)cc1n2CCCc1ccccc1 [DH281]
- cells in G1 ([1]; MRC5, 0.12 µM): 75.3%
- cells in G2 (G2/M) ([1]; MRC5, 0.12 µM): 15.5%
- cells in S ([1]; MRC5, 0.12 µM): 9.18%
- cells in G1 ([1]; MRC5, 0.48 µM): 68.2%
- cells in G2 (G2/M) ([1]; MRC5, 0.48 µM): 14.6%
- cells in S ([1]; MRC5, 0.48 µM): 17.3. %
- cells in G1 ([1]; MRC5, 1.92 µM): 59.3%
- cells in S ([1]; MRC5, 1.92 µM): 25.6%

SMILES: Cc1c2c(cc[n+]1Cc1ccccc1)c1ccc(OCc3ccccc3)cc1n2Cc1ccccc1 [DH287]
- IC50 [2]: 3.06 ± 0.69 µM
- IC50 [3]: 22.6 µM
- IC50 [4]: 24.7 µM
